Experimental data reported in PMC7399811, “Analogues of a Cyclic Antimicrobial Peptide with a Flexible Linker Show Promising Activity against Pseudomonas aeruginosa and Staphylococcus aureus” (Antibiotics, 2020).
Values after ≈ are worked out from the molar mass of the structure shown. Square brackets hold non-standard residues; d marks the D form. Peptide text beside a SMILES is read from it. Bip = N[C@@H](Cc1ccc(-c2ccccc2)cc1)C(=O)O; 2Nal = N[C@@H](Cc1ccc2ccccc2c1)C(=O)O; Dab = NCC[C@H](N)C(=O)O; AEEA = NCCOCCOCC(=O)O

Key:
A. baumannii ATCC 19606 = format: cell-based; details: ATCC 19606
Procedure: (§1) Bacterial strains (E. coli ATCC 29522, S. aureus ATCC 29213, A. baumannii ATCC 19606, and P. aeruginosa ATCC 27853) were grown overnight on LB agar plates at 37 °C. Overnight cultures were prepared by inoculation of two to three colonies in 10 mL non-cation adjusted Mueller–Hinton broth (MHB) media (BD BBLTM Beef extract powder, BD BactoTMCasamino acids, and DIFCO soluble starch). Bacterial inoculum for MIC testing was prepared as balanced cultures, as previously described. The bacterial suspension was adjusted using MHB to an OD600 of 0.1, approximately 1·10^8 colony forming units (CFU/mL), and then diluted 1:200 in MHB, to give a final bacterial suspension of 5·10^5 CFU/mL, as described by Wiegand et al.. […] For MIC determination, all peptides were measured in triplicates using the protocol described by Wiegand et al. for “antimicrobial peptides that require the presence of acetic acid/BSA”. In brief, 20 µL peptide solution and gentamycin solution was transferred to column 1 of 96-well plates. Next, 10 µL 0.2% BSA; 0.01% acetic acid MHB media was transferred to column 2–11. Subsequently, peptides were serially diluted two-fold in the MIC plate and 90 µL bacterial suspension was transferred to all wells in column 1–11. Next, 100 µL bacterial suspension was transferred to column 12 D–F (growth control) and 100 µL media to column 12 A–C (sterility control). After an overnight incubation at 37 °C of the MIC plates, MIC values were determined as the lowest concentration at which there was no visible bacterial growth. For the inoculum control, 10 µL of solution from a positive-growth control well from each bacterial strain was dissolved in 990 µL phosphate-buffered saline (PBS) (1:100 dilution) in an Eppendorf tube. This solution was vortexed and 100 µL transferred to another Eppendorf tube containing 900 µL PBS (1:10 dilution) and vortexed. Then, 100 µL of each dilution was spread onto the MHB media plates, in triplicates, to achieve a CFU dilution of 1:1000 and 1:10,000, respectively. The plates were incubated overnight at 37 °C. The colonies were counted and 50 colonies were expected on the 1:10,000 plates and 500 on the 1:1000 plates.

E. coli ATCC 29522 = format: cell-based; details: ATCC 29522
Procedure: as §1

P. aeruginosa ATCC 27853 = format: cell-based
Procedure: as §1

S. aureus ATCC 29213 = format: cell-based
Procedure: as §1

red blood cells = details: at 150 µM peptide; 0.5% v/v RBC in PBS, 1 h 37 °C, absorbance 414 nm, normalized to melittin (100%) and PBS (0%)
Procedure: A total of 150 µL of 5 µM melittin was added to the positive control wells 1-6H of a V-shaped 96-well polypropylene plate and left overnight. The melittin solution was removed and the positive control wells were washed 3 times with 150 µL PBS. Afterwards, a 2.5 µM melittin solution was added to the positive control wells. For the assay, 0-negative blood in EDTA was used. Blood was washed by mixing 3 mL of PBS with 1 mL of whole blood, and centrifuged for 8 min at 3000 rpm. The supernatant was discarded and 4 mL of PBS added, mixed gently, and centrifuged. This wash cycle was repeated but the last centrifuge velocity was raised to 4000 rpm. Next, 40 µL red blood cells (RBC) was suspended in 8 mL of PBS to achieve an RBC suspension of 0.5% volume/volume (v/v). Peptide solutions were prepared at 600 µM, two times the highest concentration. A total of 150 µL peptide solution was transferred to row A. Next, 75 µL PBS was transferred to wells B1 to G12, as well as H7-12 (negative control), and the peptides were serially diluted two-fold. Then, 75 µL RBC suspension was added to all wells and the plate was covered with a Microseal® film and incubated for 1 h at 37 °C. Next, the plate was centrifuged for 10 min at 4000 rpm. Subsequently, 60 µL supernatant was transferred into the corresponding wells of a clear, polystyrene, flat-bottomed 96-well ELISA plate. The absorbance was read at λ = 414 nm with a VersaMaxTM Tunable Microplate Reader and the data were evaluated on Softmax® Pro. The results were normalized with respect to the average positive (100%) and negative (0%) controls, as described previously [43].

SMILES | Minimum inhibitory concentration AB (A. baumannii ATCC 19606) | Minimum inhibitory concentration EC (E. coli ATCC 29522) | Minimum inhibitory concentration PA (P. aeruginosa ATCC 27853) | Minimum inhibitory concentration SA (S. aureus ATCC 29213) | percent hemolytic activity against red blood cells (%H) (red blood cells)
NCCCC[C@@H]1NC(=O)[C@H](Cc2ccccc2)NC(=O)COCCOCCNC(=O)[C@H](Cc2ccc(-c3ccccc3)cc2)NC(=O)[C@H](CCCCN)NC(=O)[C@H](CCCCN)NC(=O)[C@H](Cc2ccc3ccccc3c2)NC(=O)[C@H](CCCCN)NC(=O)[C@H](CC(N)=O)NC1=O [compound 7] (cyclo(K[2Nal]KK[Bip][AEEA]FKN)) | 64 µg/mL (≈ 47.8 µM) | >64 µg/mL | 64 µg/mL (≈ 47.8 µM) | >64 µg/mL | 7%
N=C(N)NCCC[C@@H]1NC(=O)[C@H](CCN)NC(=O)[C@H](Cc2ccc3ccccc3c2)NC(=O)[C@H](CCN)NC(=O)[C@H](CC(N)=O)NC(=O)[C@H](CCN)NC(=O)[C@H](Cc2ccc3ccccc3c2)NC(=O)COCCOCCNC(=O)[C@H](Cc2ccc(-c3ccccc3)cc2)NC1=O [compound 12] (cyclo([Dab][2Nal][Dab]R[Bip][AEEA][2Nal][Dab]N)) | 32 µg/mL (≈ 24 µM) | 32 µg/mL (≈ 24 µM) | 4 µg/mL (≈ 3 µM) | 1 µg/mL (≈ 0.75 µM) | 98%
NCCCC[C@@H]1NC(=O)[C@H](Cc2ccc3ccccc3c2)NC(=O)COCCOCCNC(=O)[C@H](Cc2ccc(-c3ccccc3)cc2)NC(=O)[C@H](CCCCN)NC(=O)[C@H](CC(N)=O)NC(=O)[C@H](Cc2ccc3ccccc3c2)NC(=O)[C@H](CCCCN)NC(=O)[C@H](CCCCN)NC1=O [compound 3] (cyclo(K[2Nal]NK[Bip][AEEA][2Nal]KK)) | 64 µg/mL (≈ 46.1 µM) | >64 µg/mL | 64 µg/mL (≈ 46.1 µM) | 64 µg/mL (≈ 46.1 µM) | 
N=C(N)NCCC[C@@H]1NC(=O)[C@H](Cc2ccc3ccccc3c2)NC(=O)[C@H](CCN)NC(=O)[C@H](CC(N)=O)NC(=O)[C@H](CCN)NC(=O)[C@H](Cc2ccc3ccccc3c2)NC(=O)COCCOCCNC(=O)[C@H](Cc2ccccc2)NC(=O)[C@H](CCN)NC1=O [compound 18] (cyclo([Dab][2Nal]R[Dab]F[AEEA][2Nal][Dab]N)) | >64 µg/mL | 64 µg/mL (≈ 50.9 µM) | 16 µg/mL (≈ 12.7 µM) | 64 µg/mL (≈ 50.9 µM) | 30%
NCCCC[C@@H]1NC(=O)[C@H](Cc2ccc3ccccc3c2)NC(=O)COCCOCCNC(=O)[C@H](Cc2ccc(-c3ccccc3)cc2)NC(=O)[C@H](CCCCN)NC(=O)[C@H](CCCCN)NC(=O)[C@H](Cc2ccc3ccccc3c2)NC(=O)[C@H](CCCCN)NC(=O)[C@H](CC(N)=O)NC1=O [BSI-9, cyclo(Lys-Nal-Lys-Lys-Bip-O2Oc-Nal-Lys-Asn), reference compound] (cyclo(K[2Nal]KK[Bip][AEEA][2Nal]KN)) | 32 µg/mL (≈ 23 µM) | 64 µg/mL (≈ 46.1 µM) | 16 µg/mL (≈ 11.5 µM) | 32 µg/mL (≈ 23 µM) | 33%
NCCCC[C@@H]1NC(=O)[C@H](Cc2ccccc2)NC(=O)COCCOCCNC(=O)[C@H](Cc2ccccc2)NC(=O)[C@H](CCCCN)NC(=O)[C@H](CCCCN)NC(=O)[C@H](Cc2ccccc2)NC(=O)[C@H](CCCCN)NC(=O)[C@H](CC(N)=O)NC1=O [compound 8] (cyclo(KFKKF[AEEA]FKN)) | >64 µg/mL | >64 µg/mL | >64 µg/mL | >64 µg/mL | 3%
N=C(N)NCCC[C@@H]1NC(=O)[C@H](Cc2ccc3ccccc3c2)NC(=O)[C@H](CCCNC(=N)N)NC(=O)[C@H](CC(N)=O)NC(=O)[C@H](CCN)NC(=O)[C@H](Cc2ccc3ccccc3c2)NC(=O)COCCOCCNC(=O)[C@H](Cc2ccc(-c3ccccc3)cc2)NC(=O)[C@H](CCN)NC1=O [compound 15] (cyclo(R[2Nal]R[Dab][Bip][AEEA][2Nal][Dab]N)) | >64 µg/mL | 64 µg/mL (≈ 46.1 µM) | 16 µg/mL (≈ 11.5 µM) | 8 µg/mL (≈ 5.76 µM) | 
N=C(N)NCCC[C@@H]1NC(=O)[C@H](Cc2ccc3ccccc3c2)NC(=O)[C@H](CCCNC(=N)N)NC(=O)[C@H](CC(N)=O)NC(=O)[C@H](CCN)NC(=O)[C@H](Cc2ccc3ccccc3c2)NC(=O)COCCOCCNC(=O)[C@H](Cc2ccccc2)NC(=O)[C@H](CCN)NC1=O [compound 16] (cyclo(R[2Nal]R[Dab]F[AEEA][2Nal][Dab]N)) | 64 µg/mL (≈ 48.7 µM) | 64 µg/mL (≈ 48.7 µM) | 16 µg/mL (≈ 12.2 µM) |  | 16%
N=C(N)NCCC[C@@H]1NC(=O)[C@H](CC(N)=O)NC(=O)[C@H](CCN)NC(=O)[C@H](Cc2ccc3ccccc3c2)NC(=O)COCCOCCNC(=O)[C@H](Cc2ccccc2)NC(=O)[C@H](CCN)NC(=O)[C@H](CCN)NC(=O)[C@H](Cc2ccc3ccccc3c2)NC1=O [compound 17] (cyclo(R[2Nal][Dab][Dab]F[AEEA][2Nal][Dab]N)) | >64 µg/mL | 64 µg/mL (≈ 50.9 µM) | 16 µg/mL (≈ 12.7 µM) | 64 µg/mL (≈ 50.9 µM) | 3%
NCCCC[C@@H]1NC(=O)[C@H](Cc2ccc3ccccc3c2)NC(=O)COCCOCCNC(=O)[C@H](Cc2ccc(-c3ccccc3)cc2)NC(=O)[C@H](CC(N)=O)NC(=O)[C@H](CCCCN)NC(=O)[C@H](Cc2ccc3ccccc3c2)NC(=O)[C@H](CCCCN)NC(=O)[C@H](CCCCN)NC1=O [compound 2] (cyclo(K[2Nal]KN[Bip][AEEA][2Nal]KK)) | >64 µg/mL | >64 µg/mL | 64 µg/mL (≈ 46.1 µM) | >64 µg/mL | 
NCCCC[C@@H]1NC(=O)[C@H](Cc2ccc3ccccc3c2)NC(=O)COCCOCCNC(=O)[C@H](Cc2ccc(-c3ccccc3)cc2)NC(=O)[C@H](CCCCN)NC(=O)[C@H](CCCCN)NC(=O)[C@H](Cc2ccc3ccccc3c2)NC(=O)[C@H](CC(N)=O)NC(=O)[C@H](CCCCN)NC1=O [compound 4] (cyclo(N[2Nal]KK[Bip][AEEA][2Nal]KK)) | 64 µg/mL (≈ 46.1 µM) | >64 µg/mL | 64 µg/mL (≈ 46.1 µM) | >64 µg/mL | 
NCCCC[C@@H]1NC(=O)[C@H](CCCCN)NC(=O)[C@H](Cc2ccc3ccccc3c2)NC(=O)[C@H](CCCCN)NC(=O)[C@H](CCCCN)NC(=O)[C@H](CC(N)=O)NC(=O)[C@H](Cc2ccc3ccccc3c2)NC(=O)COCCOCCNC(=O)[C@H](Cc2ccc(-c3ccccc3)cc2)NC1=O [compound 1] (cyclo(K[2Nal]KK[Bip][AEEA][2Nal]NK)) | 32 µg/mL (≈ 23 µM) | >64 µg/mL | 32 µg/mL (≈ 23 µM) | >64 µg/mL | 
